Test results taken from US20060079497A1, “Lavendamycin analogues and methods of synthesizing and using lavendamycin analogues” (Ball State University, priority 2004, published 2006).
Like-named read-outs stand apart in the source and are kept apart here.

Assays:
HIV-RT = biological target: T1, HIV-RT (Human immunodeficiency virus type 1 group M subtype B, UniProt P04585); assay: Checkerboard combination of lavendamycin analogs with AZT-triphosphate in HIV-RT enzyme assay (Chou and Talalay); assay type: biochemical
T1 construct: 1 unit/mL of HIV-RT (Worthington Biochemical Corp., Freehold, N.J.); purchased Worthington Biochemical Corp., Freehold, N.J
Method: The results were analyzed by the method of Chou and Talalay based on the median-effect principle and represented by combination indices (CI) determined for each of the two drug combinations (e.g., see: Chou, T. C.; Talalay, P. “Quantitative Analysis of Dose-Effect Relationships: The Combined Effects of Multiple Drugs or Enzyme Inhibitors,” Adv. Enzyme Regul., 1984, 22, 27-65; and Chou, J.; Chou, T. C. “Dose-Effect Analysis with Microcomputers: Quantitation of ED50, LD50, Synergism, Antagonism, Low-Dose Risk, Receptor-Ligand Binding and Enzyme Kinetics,” In: A computer Software for IBM-PC and Manual, Cambridge, UK, Elsevier-Biosoft, 1987). This method involves the plotting of dose-effect curves for each agent and for each of the different combinations of the agents. The slope of the median-effect plot, which signifies the shape of the dose-effect curve, and the x intercept of the plot, which signifies the potency of each compound alone and each combination, were then used for a computerized calculation of a combination index.
(§1) The assay procedure described below is adapted from Okada et al. (Okada, H.; Mukai, H.; Inouye, Y; Nakamura, S. “Biological Properties of Streptonigrin Derivatives II. Inhibition of Reverse Transcriptase Activity,” J. Antibiot., 1986, 39, 306-308). The lavendamycin analogs were initially dissolved in DMSO at a concentration of 1 mg/mL. Occasionally, mild sonication and heat were used to dissolve the less soluble compounds. The dissolved analogs were then serially diluted in distilled water to achieve concentrations in the final reaction mixture ranging from 0.5-15 μM. In addition to the lavendamycin analogs, the final reaction mixture contained 100 mM Tris-HCl (pH 8.0), 5 mM MgCl2, 5 mM dithiothreitol, 60 mM NaCl, 0.2 mM [^3H] thymidine triphosphate(5 μCi well), 4 μg/mL poly (rA)-oligo(dT)12-18 (Amersham Pharmacia Biotech, Piscataway, N.J.) and 1 unit/mL of HIV-RT (Worthington Biochemical Corp., Freehold, N.J.) in a total volume of 300 μL. For each assay, the reaction mixture containing 8× buffer, double distilled H2O, ^3HTTP, template-primer and HIV-RT was pre-mixed in a 15-mL sterile tube in quantities required for the particular experiment. After adding the enzyme, the reaction mixture was mixed and kept on ice. The inhibitors, either AZT(Moravek Biochemicals, Brea, Calif.), analogs or both were added to appropriate wells in a 24 well microtiter plate and ddH2O was added to each well to bring the volume of all test wells to 100 μL. Two hundred μL of the chilled reaction mixture was then added to each of the test wells, mixed, and incubated for 1 hr at 37° C. Several control wells with no inhibitors were included on each test plate. After stopping the reactions with 25 μL 0.1 M EDTA, triplicate samples of 15 μL from each test well were spotted on DE81 ion exchange filter paper squares (Whatman Paper, Maidstone, England). After drying, each filter was washed for 10 minutes three times with 5% TCA-NHPO4, three times with 0.6M NaCl-[…] Na Citrate, one time with ddH2O and one time with 95% ethanol. After drying the individual filter papers were added to 5 mL Scintiverse E (Fisher Scientific, Chicago, Ill.) scintillation fluid and the amount of 3H-TTP uptake measured as counts per minute on a Beckman liquid scintillation counter. […] The results were then analyzed using Calcusyn, a windows software program for dose effect analysis designed by T. -C. Chou and M. P. Hayball and published by Biosoft® (UK).

[1] = biological target: T2, HIV reverse transcriptase (HIV-RT) (Human immunodeficiency virus type 1 group M subtype B, UniProt P04585); assay: HIV-RT assay (3H-TTP incorporation, modified assay of Okada et al.); assay type: biochemical; settings: Mean IC50 ± SEM (no. of expts), 50% inhibition of HIV RT activity toward 1 unit of enzyme
T2 construct: 1 unit/mL of HIV-RT (Worthington Biochemical Corp., Freehold, N.J.); purchased Worthington Biochemical Corp., Freehold, N.J
Method: Briefly, the analogues were initially dissolved in either DMSO or HEPES buffer (pH 7.2) and then diluted to the appropriate concentration before addition to the assay mixtures. […] Several control wells without any inhibitors were also included on each microtiter plate. The reactions were allowed to proceed for 1 h at 37° C. […] A more detailed description of reaction conditions is provided below in the Examples. The concentration of drug which inhibited 50% of the enzyme activity (IC50) was determined by using the computer software program Calcusyn, which plots the dose-effect curves from the inhibition data and calculates the IC50 for each drug.
as §1

[2] = analogue 0.25 μM + AZT 0.007 μM, Trial 1
[3] = analogue 0.25 μM + AZT 0.007 μM, Trial 2
[4] = analogue 0.25 μM + AZT 0.01 μM, Trial 1
[5] = analogue 0.25 μM + AZT 0.01 μM, Trial 2
[6] = analogue 0.25 μM + AZT 0.02 μM, Trial 1
[7] = analogue 0.25 μM + AZT 0.02 μM, Trial 2
[8] = analogue 0.5 μM + AZT 0.007 μM, Trial 1
[9] = analogue 0.5 μM + AZT 0.007 μM, Trial 2
[10] = analogue 0.5 μM + AZT 0.01 μM, Trial 1
[11] = analogue 0.5 μM + AZT 0.01 μM, Trial 2
[12] = analogue 0.5 μM + AZT 0.02 μM, Trial 1
[13] = analogue 0.5 μM + AZT 0.02 μM, Trial 2
[14] = analogue 0.75 μM + AZT 0.01 μM, Trial 1
[15] = analogue 0.75 μM + AZT 0.01 μM, Trial 2
[16] = analogue 0.75 μM + AZT 0.02 μM, Trial 1
[17] = analogue 0.75 μM + AZT 0.02 μM, Trial 2
[18] = analogue 1.5 μM + AZT 0.007 μM, Trial 1
[19] = analogue 1.5 μM + AZT 0.007 μM, Trial 2
[20] = analogue 1.5 μM + AZT 0.01 μM, Trial 1
[21] = analogue 1.5 μM + AZT 0.01 μM, Trial 2
[22] = analogue 1.5 μM + AZT 0.02 μM, Trial 1
[23] = analogue 1.5 μM + AZT 0.02 μM, Trial 2

| SMILES | Combination index (HIV-RT; [2]) | Combination index (HIV-RT; [3]) | Combination index (HIV-RT; [4]) | Combination index (HIV-RT; [5]) | Combination index (HIV-RT; [6]) | Combination index (HIV-RT; [7]) | Combination index (HIV-RT; [8]) | Combination index (HIV-RT; [9]) | Combination index (HIV-RT; [10]) | Combination index (HIV-RT; [11]) | Combination index (HIV-RT; [12]) | Combination index (HIV-RT; [13]) | Combination index (HIV-RT; [14]) | Combination index (HIV-RT; [15]) | Combination index (HIV-RT; [16]) | Combination index (HIV-RT; [17]) | Combination index (HIV-RT; [18]) | Combination index (HIV-RT; [19]) | Combination index (HIV-RT; [20]) | Combination index (HIV-RT; [21]) | further results |
| --- | --- | --- | --- | --- | --- | --- | --- | --- | --- | --- | --- | --- | --- | --- | --- | --- | --- | --- | --- | --- | --- |
| CC(=O)NC1=CC(=O)c2ccc(-c3nc(C(=O)O)cc4c3[nH]c3ccccc34)nc2C1=O [Compound 18, 7-N-Acetyldemethyllavendamycin] | 0.39 | 0.37 | 0.44 | 0.45 | 0.59 | 0.60 | 0.40 | 0.42 | 0.51 | 0.50 | 0.97 | 0.98 | 0.59 | 0.57 | 0.95 | 0.97 | 1.00 | 0.94 | 0.90 | 0.82 | Combination index (HIV-RT): 0.66; Combination index (HIV-RT; [22]): 2.00; Combination index (HIV-RT; [23]): 2.20; combined effect with AZT-TP (HIV-RT; analogue 1.5 μM together with AZT-TP 0.02 μM): antagonism; IC50 [1]: 13.3 ± 4.4 µM |
| CC(=O)NC1=CC(=O)c2ccc(-c3nc(C(N)=O)cc4c3[nH]c3ccccc34)nc2C1=O [Compound 16, 7-N-Acetyldemethyllavendamycin Amide] | 0.82 | 0.80 | 0.85 | 1.18 | 0.67 | 0.75 | 0.54 | 0.65 | 0.87 | 0.70 | 0.58 | 0.60 | 1.0 | 1.20 | 1.10 | 1.10 | 0.66 | 0.67 | 1.0 | 1.0 | Combination index (HIV-RT; analogue 0.75 μM + AZT 0.007 μM, Trial 1): 1.50; Combination index (HIV-RT; analogue 0.75 μM + AZT 0.007 μM, Trial 2): 1.61; Combination index (HIV-RT; [22]): 1.00; Combination index (HIV-RT; [23]): 1.00; IC50 [1]: 12.7 ± 5.2 µM |
